In patent US20090054392A1, “NAPHTHYLPYRIMIDINE, NAPHTHYLPYRAZINE AND NAPHTHYLPYRIDAZINE ANALOGS AND THEIR USE AS AGONISTS OF THE WNT-BETA-CATENIN CELLULAR MESSAGING SYSTEM” (Wyeth, priority 2007, published 2009):

System: Dkk1-LRP5-TCF-Luciferase
Assay: Functional Dkk1-LRP5-TCF-Luciferase Assay in U2OS Cells
Conditions: for fold induction at 2 µM / fold induction at 20 µM / EC50: Homo sapiens, U2OS; for fold induction at 2 µM: read-out: B = TCF ACTIVITY/DMSO CONTROL Fold induction @ 2.0 uM, 2.0 uM compound; for A = MAX FOLD Induction/DMSO CONTROL: maximum fold induction over DMSO control; for fold induction at 20 µM: read-out: C = TCF ACTIVITY/DMSO CONTROL Fold induction @ 20.0 uM, 20.0 uM compound

Row | SMILES | fold induction at 2 µM | A = MAX FOLD Induction/DMSO CONTROL | fold induction at 20 µM | EC50
1 | CC(=O)N(CC(F)(F)F)[C@H]1CCN(c2nccc(-c3ccc4ccccc4c3)n2)C1 [N-{(3S)-1-[4-(2-naphthyl)pyrimidin-2-yl]pyrrolidin-3-yl}-N-(2,2,2-trifluoroethyl)acetamide] | 1.23 |  |  | 
2 | CC(C)(C)OC(=O)N1CC[C@H](Nc2nccc(-c3ccc4ccccc4c3)n2)C1 [tert-butyl (3S)-3-{[4-(2-naphthyl)pyrimidin-2-yl]amino}pyrrolidine-1-carboxylate] | 2.11 | 1.270 fold |  | 
3 | N=C(N)N[C@@H]1CCN(c2nccc(-c3ccc4ccccc4c3)n2)C1 [N-{(3R)-1-[4-(2-naphthyl)pyrimidin-2-yl]pyrrolidin-3-yl}guanidine] | 1.63 |  | 0.65 | 
4 | CC1(O)CCN(c2nccc(-c3ccc4ccccc4c3)n2)CC1 [4-methyl-1-[4-(2-naphthyl)pyrimidin-2-yl]piperidin-4-ol] |  |  | 1.09 | 
5 | CN(C)S(=O)(=O)N1CCCN(c2nccc(-c3ccc4ccccc4c3)n2)CC1 [N,N-dimethyl-4-[4-(2-naphthyl)pyrimidin-2-yl]-1,4-diazepane-1-sulfonamide] |  |  | 0.63 | 
6 | O=C1CCN(c2nccc(-c3ccc4ccccc4c3)n2)CC1 [1-[4-(2-naphthyl)pyrimidin-2-yl]piperidin-4-one] | 1.43 |  | 1.19 | 
7 | CCN(CCO)C[C@H]1CCN(c2nccc(-c3ccc4ccccc4c3)n2)C1 [2-[ethyl({(3R)-1-[4-(2-naphthyl)pyrimidin-2-yl]pyrrolidin-3-yl}methyl)amino]ethanol] | 2.93 | 3.895 fold | 0.15 | 2.92 µM
8 | CCNCC1CCN(c2nccc(-c3ccc4ccccc4c3)n2)CC1 [N-({1-[4-(2-naphthyl)pyrimidin-2-yl]piperidin-4-yl}methyl)ethanamine] | 1.33 | 4.200 fold | 0.01 | 3.3 µM
9 | c1ccc2cc(-c3ccnc(N4CC[C@@H](N5CC6CCNC6C5)C4)n3)ccc2c1 (stereo partly drawn) [5-{(3R)-1-[4-(2-naphthyl)pyrimidin-2-yl]pyrrolidin-3-yl}octahydropyrrolo[3,4-b]pyrrole] | 2.2 |  |  | 
10 | CN(CCN(C)[C@@H]1CCN(c2nccc(-c3ccc4ccccc4c3)n2)C1)Cc1ccccc1 [N-benzyl-N,N′-dimethyl-N′-{(3R)-1-[4-(2-naphthyl)pyrimidin-2-yl]pyrrolidin-3-yl}ethane-1,2-diamine] | 1.6 |  |  | 
11 | CCC(=O)N(C)CCN(C)[C@@H]1CCN(c2nccc(-c3ccc4ccccc4c3)n2)C1 [N-methyl-N-[2-(methyl{(3R)-1-[4-(2-naphthyl)pyrimidin-2-yl]pyrrolidin-3-yl}amino)ethyl]propanamide] |  |  | 2.5 | 
12 | CN(C)S(=O)(=O)N1CC[C@@H](Nc2nccc(-c3ccc4ccccc4c3)n2)C1 [(3R)—N,N-dimethyl-3-{[4-(2-naphthyl)pyrimidin-2-yl]amino}pyrrolidine-1-sulfonamide] |  | 2.510 fold | 2.31 | 3.16 µM
13 | COC(=O)N[C@H]1CCN(c2nccc(-c3ccc4ccccc4c3)n2)C1 [methyl {(3S)-1-[4-(2-naphthyl)pyrimidin-2-yl]pyrrolidin-3-yl}carbamate] | 1.03 |  | 1.63 | 
14 | C[C@@H](N)C1CCN(c2nccc(-c3ccc4ccccc4c3)n2)CC1 [(1R)-1-{1-[4-(2-naphthyl)pyrimidin-2-yl]piperidin-4-yl}ethanamine] |  | 2.280 fold |  | 0.87 µM
15 | CN(c1nccc(-c2ccc3ccccc3c2)n1)C1CCN(S(C)(=O)=O)CC1 [N-methyl-N-[1-(methylsulfonyl)piperidin-4-yl]-4-(2-naphthyl)pyrimidin-2-amine] | 1.24 |  | 0.77 | 
16 | COC(=O)N(C)CCN(C)[C@@H]1CCN(c2nccc(-c3ccc4ccccc4c3)n2)C1 [methyl methyl[2-(methyl{(3R)-1-[4-(2-naphthyl)pyrimidin-2-yl]pyrrolidin-3-yl}amino)ethyl]carbamate] |  |  | 1.2 | 
17 | CC(C)(C)OC(=O)N1CCC(Nc2nccc(-c3ccc4ccccc4c3)n2)CC1 [tert-butyl 4-{[4-(2-naphthyl)pyrimidin-2-yl]amino}piperidine-1-carboxylate] | 1 |  | 1.41 | 
18 | CC(C)(C)N[C@H]1CCN(c2nccc(-c3ccc4ccccc4c3)n2)C1 [(3S)—N-(tert-butyl)-1-[4-(2-naphthyl)pyrimidin-2-yl]pyrrolidin-3-amine] | 2.39 | 2.690 fold |  | 
19 | NCCC1CCN(c2nccc(-c3ccc4ccccc4c3)n2)CC1 [2-{1-[4-(2-naphthyl)pyrimidin-2-yl]piperidin-4-yl}ethanamine] | 2.15 | 1.420 fold | 0.005 | 
20 | CN(C)C(=O)[C@@H]1CCCN1c1nccc(-c2ccc3ccccc3c2)n1 [N,N-dimethyl-1-[4-(2-naphthyl)pyrimidin-2-yl]-L-prolinamide] | 1 |  | 1.24 | 

Row | SMILES | fold induction at 2 µM | A = MAX FOLD Induction/DMSO CONTROL | fold induction at 20 µM | EC50
21 | CCOC(=O)N1CCCN(c2nccc(-c3ccc4ccccc4c3)n2)CC1 [ethyl 4-[4-(2-naphthyl)pyrimidin-2-yl]-1,4-diazepane-1-carboxylate] |  | 1.790 fold | 2.49 | 30 µM
22 | CC(C)(C)OC(=O)NCC1CCN(c2nccc(-c3ccc4ccccc4c3)n2)C1 (stereo not shown) [tert-butyl ({1-[4-(2-naphthyl)pyrimidin-2-yl]pyrrolidin-3-yl}methyl)carbamate] | 1.09 |  | 0.17 | 
23 | O=C(NCCC1CCN(c2nccc(-c3ccc4ccccc4c3)n2)CC1)C(F)(F)F [2,2,2-trifluoro-N-(2-{1-[4-(2-naphthyl)pyrimidin-2-yl]piperidin-4-yl}ethyl)acetamide] | 1.77 |  | 1.04 | 
24 | c1ccc2cc(-c3ccnc(N4CCC4)n3)ccc2c1 [2-azetidin-1-yl-4-(2-naphthyl)pyrimidine] | 1.37 |  | 1.58 | 
25 | c1ccc2cc(-c3ccnc(N4CC[C@@H](N5CCCC5)C4)n3)ccc2c1 [(3′R)-1′-[4-(2-naphthyl)pyrimidin-2-yl]-1,3′-bipyrrolidine] | 1.38 | 2.760 fold | 2.62 | 
26 | CN(C)C(=O)N[C@H]1CCN(c2nccc(-c3ccc4ccccc4c3)n2)C1 [N,N-dimethyl-N′-{(3S)-1-[4-(2-naphthyl)pyrimidin-2-yl]pyrrolidin-3-yl}urea] | 0.94 |  | 1.65 | 
27 | O=C(N[C@@H]1CCN(c2nccc(-c3ccc4ccccc4c3)n2)C1)C(F)(F)F [2,2,2-trifluoro-N-{(3R)-1-[4-(2-naphthyl)pyrimidin-2-yl]pyrrolidin-3-yl}acetamide] | 1.97 |  |  | 
28 | CNC[C@H]1CCN(c2nccc(-c3ccc4ccccc4c3)n2)C1 [N-methyl-1-{(3R)-1-[4-(2-naphthyl)pyrimidin-2-yl]pyrrolidin-3-yl}methanamine] | 2.76 | 1.030 fold | 0.01 | 
29 | c1ccc(CN2CCC(CNc3nccc(-c4ccc5ccccc5c4)n3)CC2)cc1 [N-[(1-benzylpiperidin-4-yl)methyl]-4-(2-naphthyl)pyrimidin-2-amine] |  |  | 1.49 | 
30 | OC1CCN(c2nccc(-c3ccc4ccccc4c3)n2)CC1 [1-[4-(2-naphthyl)pyrimidin-2-yl]piperidin-4-ol] | 1.35 | 2.224 fold | 0.28 | 1.28 µM
31 | CCOC(=O)N1CC[C@@H](Nc2nccc(-c3ccc4ccccc4c3)n2)C1 [ethyl (3R)-3-{[4-(2-naphthyl)pyrimidin-2-yl]amino}pyrrolidine-1-carboxylate] |  |  | 1.3 | 
32 | NCC1CCN(c2cncc(-c3ccc4ccccc4c3)n2)CC1 [1-{1-[6-(2-naphthyl)pyrazin-2-yl]piperidin-4-yl}methanamine] | 1.6 | 2.920 fold |  | 1.16 µM
33 | O=C(N1CCOCC1)N1CC[C@@H](Nc2nccc(-c3ccc4ccccc4c3)n2)C1 [N-[(3R)-1-(morpholin-4-ylcarbonyl)pyrrolidin-3-yl]-4-(2-naphthyl)pyrimidin-2-amine] |  | 1.340 fold | 2.35 | 
34 | CC(C)NC(=O)N1CCC(CNc2nccc(-c3ccc4ccccc4c3)n2)CC1 [N-isopropyl-4-({[4-(2-naphthyl)pyrimidin-2-yl]amino}methyl)piperidine-1-carboxamide] | 1.31 |  | 0.54 | 
35 | CC(C)(C)OC(=O)N[C@H]1CCN(c2nccc(-c3ccc4ccccc4c3)n2)C1 [tert-butyl {(3S)-1-[4-(2-naphthyl)pyrimidin-2-yl]pyrrolidin-3-yl}carbamate] | 1.51 |  |  | 
36 | c1ccc2cc(-c3ccnc(N4CC[C@@H](N5CCOCC5)C4)n3)ccc2c1 [4-{(3R)-1-[4-(2-naphthyl)pyrimidin-2-yl]pyrrolidin-3-yl}morpholine] | 1.2 | 1.290 fold | 2.45 | 
37 | CS(=O)(=O)N1CC[C@@H](Nc2nccc(-c3ccc4ccccc4c3)n2)C1 [N-[(3R)-1-(methylsulfonyl)pyrrolidin-3-yl]-4-(2-naphthyl)pyrimidin-2-amine] |  | 3.380 fold | 3.46 | 3.55 µM
38 | CC(C)(C)NC(=O)[C@@H]1CCCN1c1nccc(-c2ccc3ccccc3c2)n1 [N-tert-butyl-1-[4-(2-naphthyl)pyrimidin-2-yl]-L-prolinamide] | 1.94 |  |  | 
39 | CCS(=O)(=O)N(C)CCN(C)[C@@H]1CCN(c2nccc(-c3ccc4ccccc4c3)n2)C1 [N-methyl-N-[2-(methyl{(3R)-1-[4-(2-naphthyl)pyrimidin-2-yl]pyrrolidin-3-yl}amino)ethyl]ethanesulfonamide] |  |  | 1.3 | 
